{"source": "patent US11999941B2", "about": "“Composition suitable for protecting microorganisms” (SOCIÉTÉ DES PRODUITS NESTLÉ S.A., priority 2015, dated 2024)", "tested_on": "Bifidobacterium longum BL999", "assay": "Pre-screening of single ingredients as protective agent: viability loss after spray-drying, storage and reconstitution", "assay_type": "cell-based", "settings": "for viability loss after 8 weeks: 8 weeks storage at T=37° C.; for viability loss after 8 weeks / storage stability / losses during storage and reconstitution: aw=0.22, after spray-drying; for protective effect during drying: individual ingredient 18.2 wt % with maltodextrin DE12 and sodium ascorbate, compared to the reference; for storage stability / losses during storage and reconstitution: storage at T=37° C.", "experimental": "A fermentation medium suitable for the growth of Bifidobacterium longum BL999 was inoculated with 2% frozen-thawed bacteria.\nThe centrifuged biomass was then conditioned according to the following process. […] Then 300 g of centrifuged biomass were filled into a beaker, which was placed in an ice water bath. The total solids content of the biomass was measured and the protective agent solution was added at a ratio of protective agents to biomass of 55/45 (based on dry weight). The mixture was gently agitated in the ice water bath for one hour. The pH was then adjusted to pH7.\nThe conditioned concentrate was then spray-dried on a lab-scale spray-dryer (Buechi, B-290, Flawil, Switzerland). The air temperature was 140° C. and the tower temperature was adjusted by the concentrate flow to T=70° C. During drying, the beaker containing the concentrate was cooled in an ice water bath.\nIn a first round of trials, 38 ingredients were selected as potential protective agents. The effect of those ingredients on the stability of Bifidobacterium longum BL999 was tested by spray-drying biomass with a protective agent comprising maltodextrin DE12, sodium ascorbate and one single additional ingredient from the list of 38 compounds to be screened in the following concentrations:\nThis control was used as a reference to evaluate the effect of the protective agents on the stability of Bifidobacterium longum BL999 during spray-drying, storage and reconstitution.\nThe 38 culture powders and the control were prepared as described above, the conditioning being carried out with one of the 38 protective agents.\nThe cell concentration of B. longum in the powder was detected by classical plating methods. Such classical plating methods are summarized in the microbiology book: James Monroe Jay, Martin J. Loessner, David A. Golden. […] Modern food microbiology. 7th edition, Springer Science, New York, N.Y. The cells were counted in the concentrate before drying, in the culture powder directly after drying and after 2, 3, 4, 6, 8 and/or 12 weeks storage in a climatic chamber at T=37° C. above saturated potassium acetate solution (aw=0.22). The cell counts after drying and after storage were determined after reconstitution of the powder with a reconstitution medium, as known by the person skilled in the art, who is well aware of the above-mentioned plating methods.\nThe following formulae were used for the evaluation of the data:\nwhere X0 is the number of micro-organisms at time t=0 and Xt the number of microorganisms at time t. When the microbiological counts were measured in k replicates, x0 is the average number of micro-organisms at time t=0 and, xt is the average number of micro-organisms at time t, the average log loss at time t is given by:\nThe tested individual ingredients were selected among several groups of molecules: sugars, sugar alcohols, amino acids and proteins. All tested ingredients within a group were spray-dried on the same day and the reference was spray dried again with each group, also on the same day.", "key": {"[1]": {"settings": "individual ingredient 18.2 wt %"}}, "data": [{"molecule": "OC[C@@H](O)[C@@H](O)[C@H](O)[C@H](O)CO", "note": "[mannitol]", "values": [{"measurement": "viability loss after 8 weeks", "setting": "[1]", "result": "lowest"}, {"measurement": "protective effect during drying", "setting": "spray-drying", "result": "light protective effect"}]}, {"molecule": "C[C@H](N)C(=O)O", "note": "[alanine, L-alanine]", "values": [{"measurement": "storage stability / losses during storage and reconstitution", "setting": "[1]", "result": "lowest losses during storage and reconstitution"}]}, {"molecule": "OC[C@@H](O)[C@@H](O[C@@H]1O[C@H](CO)[C@H](O)[C@H](O)[C@H]1O)[C@H](O)[C@@H](O)CO", "note": "[lactitol]", "values": [{"measurement": "viability loss after 8 weeks", "setting": "[1]", "result": "lowest"}]}, {"molecule": "N[C@@H](CS)C(=O)O", "note": "[cysteine, L-cysteine]", "values": [{"measurement": "viability loss during drying", "setting": "spray-drying, protective agent of maltodextrin DE12 68.2 wt %, sodium ascorbate 13.6 wt %, individual ingredient 18.2 wt %", "result": 0.2, "unit": "log"}, {"measurement": "storage stability / losses during storage and reconstitution", "setting": "[1]", "result": "lowest losses during storage and reconstitution"}]}, {"molecule": "OC[C@H]1O[C@@](CO)(O[C@H]2O[C@H](CO)[C@@H](O)[C@H](O)[C@H]2O)[C@@H](O)[C@@H]1O", "note": "[sucrose]", "values": [{"measurement": "storage stability / losses during storage and reconstitution", "setting": "[1]", "result": "most efficient ingredient"}]}, {"molecule": "NCCCC[C@H](N)C(=O)O", "note": "[lysine, L-lysine]", "values": [{"measurement": "storage stability / losses during storage and reconstitution", "setting": "[1]", "result": "lowest losses during storage and reconstitution"}]}, {"molecule": "OC[C@@H](O)[C@@H](O)[C@H](O)[C@@H](O)CO", "note": "[sorbitol]", "values": [{"measurement": "viability loss after 8 weeks", "setting": "[1]", "result": "lowest"}, {"measurement": "protective effect during drying", "setting": "spray-drying", "result": "light protective effect"}]}, {"molecule": "O=C1O[C@H]([C@@H](O)CO)C([O-])=C1O.[Na+]", "note": "[sodium ascorbate]", "values": [{"measurement": "protective effect during drying", "setting": "spray-drying", "result": "does not show significant effect on the bacterial survival during the drying process"}]}, {"molecule": "OC[C@@H](O)[C@H](O)[C@@H](O)CO", "note": "[xylitol]", "values": [{"measurement": "protective effect during drying", "setting": "spray-drying", "result": "light protective effect"}]}, {"molecule": "N=C(N)NCCC[C@H](N)C(=O)O", "note": "[arginine, L-arginine]", "values": [{"measurement": "storage stability / losses during storage and reconstitution", "setting": "[1]", "result": "lowest losses during storage and reconstitution"}]}, {"molecule": "OCC(O)CO", "note": "[glycerol]", "values": [{"measurement": "protective effect during drying", "setting": "spray-drying", "result": "light protective effect"}, {"measurement": "storage stability / losses during storage and reconstitution", "setting": "[1]", "result": "majority of the bacteria of this variant died already after two weeks storage"}]}, {"molecule": "O[C@H]1[C@H](O)[C@@H](O)[C@H](O)[C@@H](O)[C@H]1O", "note": "[myo-inositol]", "values": [{"measurement": "viability loss after 8 weeks", "setting": "[1]", "result": "lowest"}]}]}
